Molecules are shown by their SMILES.

The results in this text go back to patent US20140288069A1, “AMINO-SUBSTITUTED IMIDAZOPYRIDAZINES AS MKNK1 KINASE INHIBITORS” (Bayer Intellectual Property GmbH, priority 2011, published 2014).

T2 sequence (Q9BUB5 1-424 isoform Q9BUB5-2 T344D): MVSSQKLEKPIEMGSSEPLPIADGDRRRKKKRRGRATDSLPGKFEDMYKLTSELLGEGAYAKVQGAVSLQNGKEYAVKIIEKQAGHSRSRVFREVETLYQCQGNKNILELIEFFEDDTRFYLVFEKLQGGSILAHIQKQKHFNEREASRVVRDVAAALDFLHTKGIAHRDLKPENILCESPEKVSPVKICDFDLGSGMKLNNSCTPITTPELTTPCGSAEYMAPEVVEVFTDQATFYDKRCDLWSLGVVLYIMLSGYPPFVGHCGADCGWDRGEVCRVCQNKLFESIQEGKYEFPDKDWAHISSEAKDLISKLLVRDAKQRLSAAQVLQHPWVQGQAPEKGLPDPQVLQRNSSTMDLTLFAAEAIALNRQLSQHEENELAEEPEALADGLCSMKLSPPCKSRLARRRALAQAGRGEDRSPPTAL

In one assay the target is T1, human full-lengt MKNK1 (Homo sapiens, UniProt Q9BUB5, T385D).
T1 construct: GST (N); purchased Carna Biosciences 02-145; host or cells: insect cells (baculovirus)
T1 sequence (Q9BUB5 1-424 isoform Q9BUB5-2 T344D): as above
The experiment in a line: MKNK1 kinase assay (MKNK1 TR-FRET assay). The settings on record: final ATP 10 μM, 15 min pre-incubation, GST-MKNK1 (T344D). It is filed as biochemical.
Protocol: MKNK1-inhibitory activity of compounds of the present invention was quantified employing the MKNK1 TR-FRET assay as described in the following paragraphs.
As substrate for the kinase reaction the biotinylated peptide biotin-Ahx-[sequence] (C-terminus in amide form) was used which can be purchased e.g. form the company Biosyntan (Berlin-Buch, Germany).
For the assay 50 mL of a 100 fold concentrated solution of the test compound in DMSO was pipetted into a black low volume 384 well microtiter plate (Greiner Bio-One, Frickenhausen, Germany), 2 μL of a solution of MKNK1 in aqueous assay buffer [50 mM HEPES pH 7.5, 5 mM magnesium chloride, 1.0 mM dithiothreitol, 0.005% (v/v) Nonidet-P40 (Sigma)] was added and the mixture was incubated for 15 min at 22° C. to allow pre-binding of the test compounds to the enzyme before the start of the kinase reaction. […] The concentration of MKNK1 was adjusted depending of the activity of the enzyme lot and was chosen appropriate to have the assay in the linear range, typical concentrations were in the range of 0.05 μg/ml. The reaction was stopped by the addition of 5 μL of a solution of TR-FRET detection reagents (5 nM streptavidine-XL665 [Cisbio Bioassays, Codalet, France] and 1 nM anti-ribosomal protein S6 (pSer236)-antibody from Invitrogen [#44921G] and 1 nM LANCE EU-W1024 labeled ProteinG [Perkin-Elmer, product no. 4D0071]) in an aqueous EDTA-solution (100 mM EDTA, 0.1% (w/v) bovine serum albumin in 50 mM HEPES pH 7.5).
The resulting mixture was incubated for 1 h at 22° C. to allow the formation of complex between the phosphorylated biotinylated peptide and the detection reagents. Subsequently the amount of phosphorylated substrate was evaluated by measurement of the resonance energy transfer from the Eu-chelate to the streptavidine-XL.
In turn, `OCCCNc1ccc2ncc(-c3cc4ccccc4o3)n2n1` [Example 14, 3-{[3-(1-Benzofuran-2-yl)imidazo[1,2-b]pyridazin-6-yl]amino}propan-1-ol] displayed a concentration for half-maximal inhibition (IC50) of 7 nM.
In turn, `O[C@@H](CNc1ccc2ncc(-c3cc4ccccc4o3)n2n1)c1cccnc1` [Example 20, (1R)-2-{[3-(1-Benzofuran-2-yl)imidazo[1,2-b]pyridazin-6-yl]amino}-1-(pyridin-3-yl)ethanol] displayed an IC50 of 1 nM.
Compound `c1cc(Nc2ccc3ncc(-c4ccncc4)n3n2)ccn1` [Example R4, N,3-Di(pyridin-4-yl)-imidazo-[1,2-b]-pyridazin-6-amine, reference compound] came in with an IC50 of 245 nM.
For the compound `OC[C@@H](O)CNc1ccc2ncc(-c3cc4ccccc4o3)n2n1` [Example 17, (2S)-3-{[3-(1-Benzofuran-2-yl)-imidazo-[1,2-b]-pyridazin-6-yl]amino}-propane-1,2-diol], the IC50 amounted to 13 nM.
The compound `OC(CNc1ccc2ncc(-c3cc4ccccc4o3)n2n1)c1ccccn1` (centres unmarked) [Example 22, 2-{[3-(1-Benzofuran-2-yl)imidazo[1,2-b]pyridazin-6-yl]amino}-1-(pyridin-2-yl)ethanol] registered an IC50 of 5 nM.
`CC(O)(CNc1ccc2ncc(-c3cc4ccccc4o3)n2n1)c1ccccc1` (centres unmarked) [Example 21, 1-{[3-(1-Benzofuran-2-yl)imidazo[1,2-b]pyridazin-6-yl]amino}-2-phenylpropan-2-ol] displayed an IC50 of 60 nM.
Still for that read-out and setting: for `c1ccc(CNc2ccc3ncc(-c4ccncc4)n3n2)cc1` [Example R1, N-Benzyl-3-(pyridin-4-yl)imidazo[1,2-b]pyridazin-6-amine, reference compound] the value was 181 nM; for `c1cc(-c2cnc3ccc(NC4CCOCC4)nn23)ccn1` [Example R5, 3-(Pyridin-4-yl)-N-(tetra-hydro-2H-pyran-4-yl)-imidazo-[1,2-b]-pyridazin-6-amine, reference compound], 192 nM.
Compound `OC(CCNc1ccc2ncc(-c3cc4ccccc4o3)n2n1)c1ccc(F)cc1` (centres unmarked) [Example 15, 3-{[3-(1-Benzofuran-2-yl)-imidazo-[1,2-b]-pyridazin-6-yl]-amino}-1-(4-fluoro-phenyl)-propan-1-ol] gave an IC50 of 32 nM.
Same read-out and setting: for `O[C@@H](CNc1ccc2ncc(-c3cc4ccccc4o3)n2n1)c1ccccc1` [Example 18, (1R)-2-{[3-(1-Benzofuran-2-yl)imidazo[1,2-b]pyridazin-6-yl]amino}-1-phenylethanol] the value was 1 nM; for `O[C@H](CNc1ccc2ncc(-c3cc4ccccc4o3)n2n1)c1ccccc1` [Example 19, (1S)-2-{[3-(1-Benzofuran-2-yl)imidazo[1,2-b]pyridazin-6-yl]amino}-1-phenylethanol], 22 nM.
Compound `c1ccc(CCNc2ccc3ncc(-c4cc5ccccc5o4)n3n2)nc1` [Example R6, 3-(1-Benzofuran-2-yl)-N-[2-(pyridin-2-yl)ethyl]imidazo[1,2-b]pyridazin-6-amine, reference compound] showed an IC50 of 17 nM.
The compound `OC[C@H](O)CNc1ccc2ncc(-c3cc4ccccc4o3)n2n1` [Example 16, (2R)-3-{[3-(1-Benzofuran-2-yl)imidazo[1,2-b]pyridazin-6-yl]amino}propane-1,2-diol] returned an IC50 of 4 nM.
On the same count and under the same terms, under `OCCNc1ccc2ncc(-c3cc4ccccc4o3)n2n1` [Example 13, 2-{[3-(1-Benzofuran-2-yl)imidazo[1,2-b]pyridazin-6-yl]amino}ethanol] stands 6 nM.
Turning to `c1ccc(Nc2ccc3ncc(-c4ccncc4)n3n2)cc1` [Example R2, N-Phenyl-3-(pyridin-4-yl)imidazo-[1,2-b]-pyridazin-6-amine, reference compound], the IC50 was 64 nM.
The compound `c1ccc2oc(-c3cnc4ccc(NCc5ccncc5)nn34)cc2c1` [Example R8, 3-(1-Benzofuran-2-yl)-N-(pyridin-4-ylmethyl)imidazo[1,2-b]pyridazin-6-amine, reference compound] displayed an IC50 of 23 nM.
The compound `CN(C)CCNc1ccc2ncc(-c3cc4ccccc4o3)n2n1` [Example R7, N′-[3-(1-Benzofuran-2-yl)imidazo[1,2-b]pyridazin-6-yl]-N,N-dimethylethane-1,2-diamine, reference compound] displayed a half-maximal inhibitory concentration (IC50) of 11 nM.
Same read-out and setting: under `CC[C@@H](CO)Nc1ccc2ncc(-c3cc4ccccc4o3)n2n1` [Example 4, (2S)-2-{[3-(1-Benzofuran-2-yl)-imidazo[1,2-b]-pyridazin-6-yl]-amino}butan-1-ol] stands 15 nM.

A further assay has as its target T2, human full-length MKNK1 (Homo sapiens, UniProt Q9BUB5, T385D).
T2 construct: GST (N); purchased Carna Biosciences 02-145; host or cells: insect cells (baculovirus)
Kind of assay: MKNK1 kinase high ATP assay (TR-FRET-based).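 Note: biotinylated peptide phosphorylation read out via Eu-chelate to streptavidin-XL665 energy transfer using anti-phospho-S6 (Ser236) antibody, 30 min reaction at 22 °C with 0.06 µM substrate.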 The note with it: final ATP 2 mM, 15 min pre-incubation with MKNK1, GST-MKNK1 (T344D). It is filed as biochemical.
Description: A recombinant fusion protein of Glutathione-S-Transferase (GST, N-terminally) and human full-length MKNK1 (amino acids 1-424 and T344D of accession number BAA 19885.1), expressed in insect cells using baculovirus expression system and purified via glutathione sepharose affinity chromatography, was purchased from Carna Biosciences (product no 02-145) and used as enzyme. As substrate for the kinase reaction the biotinylated peptide biotin-Ahx-[sequence] (C-terminus in amide form) was used, which can be purchased e.g. from the company Biosyntan (Berlin-Buch, Germany).
For the assay 50 nl nL of a 100 fold concentrated solution of the test compound in DMSO was pipetted into a black low volume 384 well microtiter plate (Greiner Bio-One, Frickenhausen, Germany), 2 μL of a solution of MKNK1 in aqueous assay buffer [50 mM HEPES pH 7.5, 5 mM magnesium chloride, 1.0 mM dithiothreitol, 0.005% (v/v) Nonidet-P40 (Sigma)] was added and the mixture was incubated for 15 min at 22° C. to allow pre-binding of the test compounds to the enzyme before the start of the kinase reaction. Then the kinase reaction was started by the addition of 3 μL of a solution of adenosine-tri-phosphate (ATP, 3.3 mM=>final conc. in the 5 μL assay volume is 2 mM) and substrate (0.1 μM=>final conc. in the 5 μL assay volume is 0.06 μM) in assay buffer and the resulting mixture was incubated for a reaction time of 30 min at 22° C. The concentration of MKNK1 was adjusted depending of the activity of the enzyme lot and was chosen appropriate to have the assay in the linear range, typical concentrations were in the range of 0.003 μg/mL. The reaction was stopped by the addition of 5 μL of a solution of TR-FRET detection reagents (5 nM streptavidine-XL665 [Cisbio Bioassays, Codolet, France] and 1 nM anti-ribosomal protein S6 (pSer236)-antibody from Invitrogen [#44921G] and 1 nM LANCE EU-W1024 labeled ProteinG [Perkin-Elmer, product no. 4D0071]) in an aqueous EDTA-solution (100 mM EDTA, 0.1% (w/v) bovine serum albumin in 50 mM HEPES pH 7.5).
The resulting mixture was incubated for 1 h at 22° C. to allow the formation of complex between the phosphorylated biotinylated peptide and the detection reagents. Subsequently the amount of phosphorylated substrate was evaluated by measurement of the resonance energy transfer from the Eu-chelate to the streptavidine-XL. Therefore, the fluorescence emissions at 620 nm and 665 nm after excitation at 350 nm were measured in a TR-FRET reader, e.g. a Rubystar (BMG Labtechnologies, Offenburg, Germany) or a Viewlux (Perkin-Elmer). The ratio of the emissions at 665 nm and at 622 nm was taken as the measure for the amount of phosphorylated substrate.
Consider `COc1nccc2oc(-c3cnc4ccc(NCC(O)C5CCOCC5)nn34)cc12` (centres unmarked) [Example 32, 2-{[3-(4-Methoxyfuro[3,2-c]pyridin-2-yl)imidazo[1,2-b]pyridazin-6-yl]amino}-1-(tetrahydro-2H-pyran-4-yl)ethanol], for which the IC50 stood at 18 nM.
On the same count and under the same terms, under `CCC(O)CNc1ccc2ncc(-c3cc4c(OC)nccc4o3)n2n1` (centres unmarked) [Example 30, 1-{[3-(4-Methoxyfuro[3,2-c]pyridin-2-yl)imidazo[1,2-b]pyridazin-6-yl]amino}butan-2-ol] stands 6 nM; under `OC(CNc1ccc2ncc(-c3cc4ccccc4o3)n2n1)C1CC1` (single isomer, unassigned; (+)) [Example 23, (+)-2-{[3-(1-Benzofuran-2-yl)imidazo[1,2-b]pyridazin-6-yl]amino}-1-cyclopropylethanol], 27 nM.
Still for that read-out and setting: under `OC(CNc1ccc2ncc(-c3cc4ccccc4o3)n2n1)c1ccc(F)cc1` (centres unmarked) [Example 41, 2-{[3-(1-Benzofuran-2-yl)imidazo[1,2-b]pyridazin-6-yl]amino}-1-(4-fluoro-phenyl)ethanol] stands 41 nM.
Still for that read-out and setting: under `NCC(O)CNc1ccc2ncc(-c3cc4ccccc4o3)n2n1` (centres unmarked) [Example 31, 1-Amino-3-{[3-(1-benzofuran-2-yl)imidazo[1,2-b]pyridazin-6-yl]amino}propan-2-ol] stands 8 nM; under `OC(CNc1ccc2ncc(-c3cc4ccccc4o3)n2n1)C1CC1` (single isomer, unassigned; (-)) [Example 24, (−)-2-{[3-(1-Benzofuran-2-yl)imidazo[1,2-b]pyridazin-6-yl]amino}-1-cyclopropylethanol], 1 nM.
In the case of `c1cc(Nc2ccc3ncc(-c4ccncc4)n3n2)ccn1` [Example R4, N,3-Di(pyridin-4-yl)-imidazo-[1,2-b]-pyridazin-6-amine, reference compound], the half-inhibitory concentration (IC50) came out at 810 nM.
The same measure, in the same setting: under `OC(CNc1ccc2ncc(-c3cc4ccccc4o3)n2n1)CN1CCOCC1` (centres unmarked) [Example 38, 1-{[3-(1-Benzofuran-2-yl)imidazo[1,2-b]pyridazin-6-yl]amino}-3-(morpholin-4-yl)propan-2-ol] stands 32 nM.
`OC(CNc1ccc2ncc(-c3cc4ccccc4o3)n2n1)C1CCOCC1` (single isomer, unassigned; (-)) [Example 26, (−)-2-{[3-(1-Benzofuran-2-yl)imidazo[1,2-b]pyridazin-6-yl]amino}-1-(tetrahydro-2H-pyran-4-yl)] showed an IC50 of 2 nM.
The same measure, in the same setting: under `OC(CNc1ccc2ncc(-c3cc4ccccc4o3)n2n1)C1CCCCC1` (centres unmarked) [Example 37, 2-{[3-(1-Benzofuran-2-yl)imidazo[1,2-b]pyridazin-6-yl]amino}-1-cyclohexylethanol] stands 29 nM.
The same measure, in the same setting: for `CC(C)C(O)CNc1ccc2ncc(-c3cc4ccccc4o3)n2n1` (centres unmarked) [Example 33, 1-{[3-(1-Benzofuran-2-yl)imidazo[1,2-b]pyridazin-6-yl]amino}-3-methylbutan-2-ol] the value was 21 nM; for `OC(CNc1ccc2ncc(-c3cc4ccccc4o3)n2n1)C1CCOCC1` (single isomer, unassigned; (+)) [Example 25, (+)-2-{[3-(1-Benzofuran-2-yl)imidazo[1,2-b]pyridazin-6-yl]amino}-1-(tetrahydro-2H-pyran-4-yl)], 7 nM; for `OC(CNc1ccc2ncc(-c3cc4ccccc4o3)n2n1)CN1CCCC1` (centres unmarked) [Example 40, 1-{[3-(1-Benzofuran-2-yl)imidazo[1,2-b]pyridazin-6-yl]amino}-3-(pyrrolidin-1-yl)propan-2-ol], 38 nM.
For `c1ccc(CNc2ccc3ncc(-c4ccncc4)n3n2)cc1` [Example R1, N-Benzyl-3-(pyridin-4-yl)imidazo[1,2-b]pyridazin-6-amine, reference compound], inhibition was half-maximal at 370 nM (IC50).
On the same count and under the same terms, under `c1cc(-c2cnc3ccc(NC4CCOCC4)nn23)ccn1` [Example R5, 3-(Pyridin-4-yl)-N-(tetra-hydro-2H-pyran-4-yl)-imidazo-[1,2-b]-pyridazin-6-amine, reference compound] stands 480 nM; under `CCC(O)CNc1ccc2ncc(-c3cc4ccccc4o3)n2n1` (centres unmarked) [Example 29, 1-{[3-(1-Benzofuran-2-yl)imidazo[1,2-b]pyridazin-6-yl]amino}butan-2-ol], 6 nM; under `CC(C)(C)C(O)CNc1ccc2ncc(-c3cc4ccccc4o3)n2n1` (centres unmarked) [Example 34, 1-{[3-(1-Benzofuran-2-yl)imidazo[1,2-b]pyridazin-6-yl]amino}-3,3-dimethylbutan-2-ol], 21 nM.
The same measure, in the same setting: for `COc1nccc2oc(-c3cnc4ccc(NC[C@H](O)c5ccccc5)nn34)cc12` [Example 28, (1R)-2-{[3-(4-Methoxyfuro[3,2-c]pyridin-2-yl)imidazo[1,2-b]pyridazin-6-yl]amino}-1-phenylethanol] the value was 5 nM.
In turn, `O=C1CCCN1CC(O)CNc1ccc2ncc(-c3cc4ccccc4o3)n2n1` (centres unmarked) [Example 36, 1-(3-{[3-(1-Benzofuran-2-yl)imidazo[1,2-b]pyridazin-6-yl]amino}-2-hydroxy-propyl)pyrrolidin-2-one] gave a 50% inhibitory concentration (IC50) of 26 nM.
Same read-out and setting: for `c1ccc(CCNc2ccc3ncc(-c4cc5ccccc5o4)n3n2)nc1` [Example R6, 3-(1-Benzofuran-2-yl)-N-[2-(pyridin-2-yl)ethyl]imidazo[1,2-b]pyridazin-6-amine, reference compound] the value was 250 nM; for `OC(CNc1ccc2ncc(-c3cc4ccccc4o3)n2n1)CN1CCCCC1` (centres unmarked) [Example 39, 1-{[3-(1-Benzofuran-2-yl)imidazo[1,2-b]pyridazin-6-yl]amino}-3-(piperidin-1-yl)propan-2-ol], 37 nM; for `c1ccc(Nc2ccc3ncc(-c4ccncc4)n3n2)cc1` [Example R2, N-Phenyl-3-(pyridin-4-yl)imidazo-[1,2-b]-pyridazin-6-amine, reference compound], 170 nM.
For `c1ccc2oc(-c3cnc4ccc(NCc5ccncc5)nn34)cc2c1` [Example R8, 3-(1-Benzofuran-2-yl)-N-(pyridin-4-ylmethyl)imidazo[1,2-b]pyridazin-6-amine, reference compound], the IC50 was found to be 34 nM.
On the same count and under the same terms, under `COc1nccc2oc(-c3cnc4ccc(NCC(O)C5CC5)nn34)cc12` (centres unmarked) [Example 27, 1-Cyclopropyl-2-{[3-(4-methoxyfuro[3,2-c]pyridin-2-yl)imidazo[1,2-b]pyridazin-6-yl]amino}ethanol] stands 4 nM; under `CN(C)CCNc1ccc2ncc(-c3cc4ccccc4o3)n2n1` [Example R7, N′-[3-(1-Benzofuran-2-yl)imidazo[1,2-b]pyridazin-6-yl]-N,N-dimethylethane-1,2-diamine, reference compound], 13 nM.
Still for that read-out and setting: for `COc1nccc2oc(-c3cnc4ccc(NC[C@@H](O)c5ccccc5)nn34)cc12` [Example 35, (1S)-2-{[3-(4-Methoxyfuro[3,2-c]pyridin-2-yl)imidazo[1,2-b]pyridazin-6-yl]-amino}-1-phenylethanol] the value was 25 nM.

The term IC50 denotes the point on the concentration scale where inhibition reaches its midpoint.
